Assay results: article PMC7949122 (The Journal of Biological Chemistry, 2021)
Non-standard residues stand in square brackets, D forms with d. Residues, ends and D or L forms follow the SMILES beside them. Hyp = O=C(O)[C@@H]1C[C@@H](O)CN1; 2Thi = N[C@@H](Cc1cccs1)C(=O)O; Gly(N-cHex) = O=C(O)CNC1CCCCC1

Legend:
[1] = biological target: T1, mutant human B2R(Ø) lacking AltB2R expression (Homo sapiens, UniProt P30411); experiment: Competitive displacement of [3H]-BK binding, living B2R(Ø)-transfected HEK293A cells; conditions: n = 3
T1 construct: expressed in transfected cells; host or cells: HEK293A
T1 sequence (P30411 1-391): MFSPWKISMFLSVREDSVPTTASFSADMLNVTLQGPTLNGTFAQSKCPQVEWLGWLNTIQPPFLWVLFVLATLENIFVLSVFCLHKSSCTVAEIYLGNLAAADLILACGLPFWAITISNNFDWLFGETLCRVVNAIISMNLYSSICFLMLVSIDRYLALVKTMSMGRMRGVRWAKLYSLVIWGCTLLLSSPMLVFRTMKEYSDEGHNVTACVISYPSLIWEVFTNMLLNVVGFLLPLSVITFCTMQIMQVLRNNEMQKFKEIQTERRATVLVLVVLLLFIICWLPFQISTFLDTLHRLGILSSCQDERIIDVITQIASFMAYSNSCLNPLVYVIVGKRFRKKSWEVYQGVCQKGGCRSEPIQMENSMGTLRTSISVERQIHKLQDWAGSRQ
Description: Black and gray, negative controls with secondary antibodies only; blue, ^FlagB2R transfected cells; red, ^FlagB2R^(Ø) transfected cells. […] Reported Kd are expressed in nM. Bmax is expressed in fmol/10^6 cells.
Radioligand competition binding assay was performed using adherent living HEK293A cells transiently transfected with B2R or B2R^(Ø), as we previously described ([54]). […] Saturation binding assays were performed using adherent living HEK293A cells transiently transfected with B2R or B2R^(Ø). […] After the incubation time, cells were washed twice with ice-cold PBS, lysed with 200 μl of 0.1 N sodium hydroxide, and transferred into scintillation vials containing 4 ml scintillation liquid. The radioactivity was measured with a β-counter and data were analyzed using GraphPad 6.01 (GraphPad Software, Inc).

[2] = biological target: T2, human B2R (Gαq) (Homo sapiens, UniProt P30411); experiment: BRET G protein coupling Gαq-RLuc2/GFP10-Gγ1, B2R-transfected HEK293A cells; type: cell-based; conditions: HEK293-A; relative to maximum B2R-induced BRET response; mean ± SD, n = 3; †p < 0.05 vs B2R(Ø); read-out: Emax, Gαq/Gγ1 dissociation, B2R
T2 construct: expressed in transfected cells; host or cells: HEK293A
T2 sequence (P30411 1-391): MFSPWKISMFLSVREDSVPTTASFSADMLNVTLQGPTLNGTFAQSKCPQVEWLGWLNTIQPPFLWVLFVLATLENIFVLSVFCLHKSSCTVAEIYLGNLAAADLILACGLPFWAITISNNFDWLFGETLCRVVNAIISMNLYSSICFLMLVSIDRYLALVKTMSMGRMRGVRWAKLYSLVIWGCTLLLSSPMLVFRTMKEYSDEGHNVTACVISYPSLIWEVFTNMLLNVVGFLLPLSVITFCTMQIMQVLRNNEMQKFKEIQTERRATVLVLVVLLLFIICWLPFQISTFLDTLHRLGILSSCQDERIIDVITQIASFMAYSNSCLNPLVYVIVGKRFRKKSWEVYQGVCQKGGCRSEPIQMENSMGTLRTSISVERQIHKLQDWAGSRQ
Excerpt: To test this hypothesis, we used live-cell bioluminescence resonance energy transfer (BRET) measurements to monitor the activation of G proteins by B2R. HEK293A cells were cotransfected with vectors coding for Gαq-RlucII or Gαi2/3-RlucII, Gβ, GFP10-Gγ1, and B2R or B2R^(Ø). In this experimental setting, the dissociation of Gαq-RlucII or Gαi2/3-RlucII from GFP10-Gγ1 results in a decrease of BRET signals. BRET data in Figure 6, A–C are presented relative to the maximum B2R-induced BRET response.
(§1) D, β-arrestin2 recruitment at the plasma membrane after stimulation with NG291 in HEK293A cells transfected with B2R and B2R^(Ø) by following BRET proximity of β-arr2-RLuc2 and rGFP-CAAX. […] Note.
(§2) BRET assays were performed as previously described ([56]). Briefly, HEK293A cells were grown in 96-well plates for 48 h after transient transfection with 10 μg BRET constructs (Gαq-RLuc2, Gβ1, and GFP10-Gγ1) (Gαi2-Rluc2, Gβ1, and GFP10-Gγ1) (Gαi3-Rluc2, Gβ1, and GFP10-Gγ1) (β-arrestin2-Rluc2 and rGFP-CAAX) and B2R or B2R^(Ø). Cells were washed twice with stimulation buffer (10 mM HEPES pH 7.4, 1 mM CaCl2, 0.5 mM MgCl2, 4.2 mM KCl, 146 mM NaCl, 5.5 mM glucose) and incubated for 1 h in 80 μl stimulation buffer at room temperature. […] BRET readings were collected in the […] (Rluc2) and […] (GFP10) windows, and BRET signal was calculated as a ratio of GFP10 on Rluc2. […]

[3] = system: mutant human B2R(Ø) lacking AltB2R expression (ERK1/2 phosphorylation); experiment: ERK1/2 phosphorylation (AlphaLISA SureFire Ultra), B2R(Ø)- versus B2R-transfected HEK293A cells; type: cell-based; conditions: 1 μM agonist, n = 2
Description: To consolidate the western blot data, AlphaLISA assays were also conducted in parallel in the same cell lines for the quantitative analyses of B2R-stimulated ERK1/2 phosphorylation (Fig. 5, B and C).
Quantitative densitometry analysis of pERK1/2 levels over time (top right). pERK/total ERK ratios were calculated for each time point.

[4] = biological target: T3, human B2R (β-arrestin2) (Homo sapiens, UniProt P30411); experiment: BRET β-arrestin2 recruitment at the plasma membrane, B2R-transfected HEK293A cells; type: cell-based; conditions: HEK293-A
T3 construct: expressed in transfected cells; host or cells: HEK293A
T3 sequence (P30411 1-391): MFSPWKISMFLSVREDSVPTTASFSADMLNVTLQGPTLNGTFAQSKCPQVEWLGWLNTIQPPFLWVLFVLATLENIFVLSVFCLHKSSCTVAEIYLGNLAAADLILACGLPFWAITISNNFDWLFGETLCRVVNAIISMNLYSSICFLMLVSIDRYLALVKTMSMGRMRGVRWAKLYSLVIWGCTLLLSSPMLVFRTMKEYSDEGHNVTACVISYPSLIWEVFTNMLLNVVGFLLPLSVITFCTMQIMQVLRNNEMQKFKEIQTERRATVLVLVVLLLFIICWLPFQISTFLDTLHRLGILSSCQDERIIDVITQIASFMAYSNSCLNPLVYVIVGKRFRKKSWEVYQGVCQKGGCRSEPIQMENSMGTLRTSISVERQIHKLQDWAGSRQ
Excerpt: as §1
(§3) Since both G proteins and β-arrestins commonly participate in activation of MAPK pathways, we extended the BRET analysis to determine the effects of AltB2R on the efficacy of β-arrestin2 recruitment at the plasma membrane of HEK293A cells transfected with vectors coding for β-arrestin2-RLucII, rGFP-CAAX, and B2R or B2R^(Ø). BRET signals were monitored after addition of NG291.
as §2

[5] = biological target: T4, mutant human B2R(Ø) lacking AltB2R expression (β-arrestin2) (Homo sapiens, UniProt P30411); experiment: BRET β-arrestin2 recruitment at the plasma membrane, B2R(Ø)-transfected HEK293A cells; type: cell-based
T4 construct: expressed in transfected cells; host or cells: HEK293A
T4 sequence (P30411 1-391): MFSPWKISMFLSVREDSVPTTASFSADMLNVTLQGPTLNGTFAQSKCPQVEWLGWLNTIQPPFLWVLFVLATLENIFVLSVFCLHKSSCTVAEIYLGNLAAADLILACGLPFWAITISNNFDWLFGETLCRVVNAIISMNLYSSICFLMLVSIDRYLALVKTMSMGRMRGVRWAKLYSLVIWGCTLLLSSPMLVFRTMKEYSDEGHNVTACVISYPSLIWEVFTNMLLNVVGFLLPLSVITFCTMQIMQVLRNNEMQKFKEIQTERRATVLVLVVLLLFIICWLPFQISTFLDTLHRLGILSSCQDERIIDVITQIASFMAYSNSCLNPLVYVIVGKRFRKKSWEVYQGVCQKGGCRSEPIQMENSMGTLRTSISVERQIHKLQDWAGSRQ
Excerpt: as §1, §3, §2

N=C(N)NCCC[C@H](NC(=O)[C@H](Cc1cccs1)NC(=O)CN(C(=O)[C@H](CO)NC(=O)[C@H](Cc1cccs1)NC(=O)CNC(=O)[C@@H]1C[C@@H](O)CN1C(=O)[C@@H]1CCCN1C(=O)[C@@H](N)CCCNC(=N)N)C1CCCCC1)C(=O)O [NG291, [Hyp^3,Thi^5,^NChg^7,Thi^8]-BK] (H-RP[Hyp]G[2Thi]S[Gly(N-cHex)][2Thi]R-OH; N-terminus and C-terminus assumed) was tested, and the “binding affinity, B2R versus B2R(Ø)” value [1] was “same affinities”, the Emax [2] was 100 ± 10% and the “maximal levels of phospho-ERK1/2 (AlphaLISA), B2R(Ø) versus B2R” value [3] was “decreased maximal levels of phospho-ERK1/2”. For the same compound, the Emax [4] was 100 ± 10%, the “recruitment of β-arrestin2, cells expressing or not AltB2R” value ([5]; BRET, B2R versus B2R(Ø), BK: data not shown) was “no difference in the recruitment of β-arrestin2” and the Emax ([5]; HEK293-A, β-arr2-RLuc2 and rGFP-CAAX, mean ± SD, n = 3) was 88 ± 9%.
